In BindingDB's records for doi:10.1016/j.bmcl.2006.10.030 (Paris-Sud University, 2007):

What follows are compounds tested against Triosephosphate isomerase (Homo sapiens, UniProt P60174) (assay: Inhibition of triosephosphate isomerase).
Chain of Triosephosphate isomerase (P60174 whole entry): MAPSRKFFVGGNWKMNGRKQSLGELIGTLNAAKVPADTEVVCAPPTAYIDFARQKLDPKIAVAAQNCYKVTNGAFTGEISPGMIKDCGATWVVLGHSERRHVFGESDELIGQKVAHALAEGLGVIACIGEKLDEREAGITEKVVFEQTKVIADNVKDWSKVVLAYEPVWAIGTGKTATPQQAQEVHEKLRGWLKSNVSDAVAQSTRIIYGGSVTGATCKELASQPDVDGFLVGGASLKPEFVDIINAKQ

Row | SMILES | Ki [µM]
1 | O=C(COP(=O)(O)O)NO [2-(hydroxyamino)-2-oxoethyl dihydrogen phosphate] | 3
2 | N=C(COP(=O)(O)O)NO [Phosphoric acid mono-(N-hydroxycarbamimidoylmethyl) ester] | 4.5
3 | NNC(=O)COP(=O)(O)O [Phosphoric acid monohydrazinocarbonylmethyl ester] | 111
4 | O=C(CCP(=O)(O)O)NO [hydrogen 3-(hydroxyamino)-3-oxopropylphosphonate] | 160
5 | NC(CC(=O)NO)P(=O)(O)O (stereo not given) [hydrogen [1-azaniumyl-2-(hydroxycarbamoyl)ethyl]phosphonate] | > 500
